Results reported in patent publication US20250270209A1 (INTERLINE THERAPEUTICS, INC., priority 2022, published 2025).

Experiments:
LRRK2 wild type enzyme = LRRK2 wild type enzyme (Homo sapiens, UniProt Q5S007); experiment: Biochemical Assay: LRRK2 TR-FRET (LanthaScreen) kinase assay with LRRKtide substrate; conditions: LRRK2 Inhibition, Table 8
Protocol: 10 mM compound solution was prepared in DMSO. An 11-point, 3-fold dilution was performed, with highest concentration at 10 μM. A 10 mM compound DMSO solution was added to Labcyte LDV plate and the compound concentration of source plate was 10 mM. The 1st compound concentration of Inter plate(Labcyte 384 well PP plate) was 4.938×10^−1 mM which was prepared by transferring 1.5 μL of 10 mM compound from source plate to 28.9 μL DMSO. The 2nd compound concentration of Inter plate was 1.829×10^−2 mM which was prepared by transferring 60 nL of 10 mM compound from source plate to 32.7 μL DMSO. The 3rd compound concentration of Inter plate was 6.774×10^−4 mM which was prepared by transferring 2.5 nL of 10 mM compound from source plate to 36.9 μL DMSO. 100 nL of reference compound was dispensed in column 1 for low control wells and 100 nL of DMSO in column 24 for high control wells. Compounds were dispensed to column 2 to 23 of assay plate and backfilled with DMSO to a total volume of 100 nL.
A 2X LRRK2 enzyme solution (final concentration 3 nM) was prepared in assay buffer (Tris-HCl pH8.0:50 mM, MgCl2: 5 mM, EDTA: 1 mM, Brij-35:0.01%, 2 mM DTT). A 2× substrate solution was prepared: LRRK2 tide substrate (final concentration 400 nM) and ATP (final concentration 25 μM) in assay buffer. 5 μL 2× LRRK2 enzyme solution was dispensed to each well in assay plate by Multidrop. Assay plate was spun at 1,000 rpm for 1 min and incubated for 15 min at 23° C. 5 μL 2× ATP/LRRKtide solution was dispensed to each well in assay plate by Multidrop. Assay plate was spun at 1,000 rpm for 1 min and incubated for 120 min at 23° C.
(§1) A 2× detection solution was prepared: Tb-pERM (pLRRKtide) antibody (final concentration 0.25 nM) and EDTA (final concentration 10 mM) in TR-FRET dilution buffer. 10 μL 2× detection solution was dispensed to each well in assay plate to stop kinase reaction by Multidrop. Assay plate was spun at 1,000 rpm for 1 min and incubate for 30 min at 23° C. Assay plate was then read on Envision configured for LanthaScreen® TR-FRET. pS935 LRRK2 Cell Assay

[1] = target: T1, wild type LRRK2 overexpressed in recombinant HEK-293T cells (Homo sapiens, UniProt Q5S007); experiment: pS935 LRRK2 Cell Assay (HTRF, phospho-LRRK2 Ser935); assay type: cell-based; conditions: LRRK2 Inhibition, Table 8, 2 hours compound incubation
T1 construct: host or cells: HEK293T (transient transfection with pCMV-LRRK2 WT plasmid)
Protocol: as §1
The following protocol describes an in-vitro method for measuring phosphorylation at Ser935 on wild type LRRK2 overexpressed in recombinant HEK-293T cells. The method is based on HTRF technology, which combines Fluorescence Resonance Energy Transfer (FRET) with Time-Resolved measurement (TR). Phospho-LRRK2 (Ser935) is detected in a sandwich assay format using two different specific antibodies, one labelled with Eu3+-Cryptate (donor) and the second with d2(acceptor).When the fluorophores are in close proximity, excitation of the donor with a light source (flash lamp) stimulates FRET to the acceptor, which in turn fluoresces at a specific wavelength (665 nm). The fluorescence emission at 615 nm from the donor is also measured to allow ratiometric reduction of data. The specific signal is proportional to phospho-LRRK2 (Ser935).
Plasmid transient transfection: DMEM medium, FBS, DPBS, Trans-IT, OPTI-MEM reagents were allowed to warm to room temperature. HEK293T cells were cultured in DMEM +10% FBS complete medium in T150 flasks till around 80% confluency before transfection. Then cells were washed with 10 mL PBS and detached with 3 mL 0.25% typinsin. 30×10E6 HEK293T cells were seeded in DMEM +10% FBS complete medium to a 15 cm dish.
DNA, TransIT-LT1, OPTI-MEM complex were prepared: […] OPTI-MEM was added to a 15 mL cone tube, then […] plasmid was added to OPTI-MEM and mixed, followed by addition of 60 μL TransIT-LT1 to the plasmid OPTI-MEM mixture and mixing. The resulting mixture was incubated for 15 minutes.
The above plasmid, DNA and OPTI-MEM mixture was added dropwise to the 15 cm dish, ensuring the drops were evenly distributed. The culture dish was gently rocked back and forth and from left to right to evenly distribute the complex. The tranfected dish was incubated for 24 hours at 37° C., and 5% CO2.
Transfected HEK293T was collected in the 15 cm dish. Media was aspirated from tissue culture dish, and washed by dispensing 10 mL 1× DPBS into 15 cm dish. 1× DPBS was aspirated and 3 mL trypsin was dispensed to 15 cm dish. The dish was incubated with trypsin at room temperature for 3 min until the cells were detached. 10 mL of DMEM +10% FBS medium were added to 15 cm dish and triturated to ensure homogenous cell suspensions.
Homogenous cell suspensions were transferred to a 50 mL tube, and centrifuged for 5 minutes at 1,000 rmp/min. The supernatant was aspirated and resuspended with 20 mL complete medium. 1 mL of cell suspension was transferred for cell counting. The cell suspension was diluted to 2× 10E5 cells/ml. 50 μL cell suspensions were added to a 384-well plate. The plate was quick spun at 800 rpm for 1 minute, then incubate overnight at 37° C., 5% CO2.
Compound dispensing: compound was diluted (10 mM DMSO stock solution) and added to assay plate (top concentration: 10 μM, 3 fold serial dilution, 9 doses) with duplicates by Tecan liquid handler. The DMSO concentration of each well was normalized to 0.2%. Plates were quick spun at 1,000 rpm for 1 minute. Plates were incubated at 37° C., 5% CO2 for 2 hours.
1× lysis buffer solution supplemented with blocking reagent was prepared (e.g. 1 mL lysis buffer 4X+3 mL water+40 μL stock blocking reagent 100X). Antibodies working solution was prepared by diluting 40-fold d2 and Cryptate antibodies with detection buffer(e.g. 1520 μL detection buffer+40 μL d2-antibody stock solution+[…] Cryptate-antibody stock solution).
After 2 hours incubation, cell plates were taken out from the incubator. […]

LRRK2 wild type enzyme, sequence (Q5S007 whole entry): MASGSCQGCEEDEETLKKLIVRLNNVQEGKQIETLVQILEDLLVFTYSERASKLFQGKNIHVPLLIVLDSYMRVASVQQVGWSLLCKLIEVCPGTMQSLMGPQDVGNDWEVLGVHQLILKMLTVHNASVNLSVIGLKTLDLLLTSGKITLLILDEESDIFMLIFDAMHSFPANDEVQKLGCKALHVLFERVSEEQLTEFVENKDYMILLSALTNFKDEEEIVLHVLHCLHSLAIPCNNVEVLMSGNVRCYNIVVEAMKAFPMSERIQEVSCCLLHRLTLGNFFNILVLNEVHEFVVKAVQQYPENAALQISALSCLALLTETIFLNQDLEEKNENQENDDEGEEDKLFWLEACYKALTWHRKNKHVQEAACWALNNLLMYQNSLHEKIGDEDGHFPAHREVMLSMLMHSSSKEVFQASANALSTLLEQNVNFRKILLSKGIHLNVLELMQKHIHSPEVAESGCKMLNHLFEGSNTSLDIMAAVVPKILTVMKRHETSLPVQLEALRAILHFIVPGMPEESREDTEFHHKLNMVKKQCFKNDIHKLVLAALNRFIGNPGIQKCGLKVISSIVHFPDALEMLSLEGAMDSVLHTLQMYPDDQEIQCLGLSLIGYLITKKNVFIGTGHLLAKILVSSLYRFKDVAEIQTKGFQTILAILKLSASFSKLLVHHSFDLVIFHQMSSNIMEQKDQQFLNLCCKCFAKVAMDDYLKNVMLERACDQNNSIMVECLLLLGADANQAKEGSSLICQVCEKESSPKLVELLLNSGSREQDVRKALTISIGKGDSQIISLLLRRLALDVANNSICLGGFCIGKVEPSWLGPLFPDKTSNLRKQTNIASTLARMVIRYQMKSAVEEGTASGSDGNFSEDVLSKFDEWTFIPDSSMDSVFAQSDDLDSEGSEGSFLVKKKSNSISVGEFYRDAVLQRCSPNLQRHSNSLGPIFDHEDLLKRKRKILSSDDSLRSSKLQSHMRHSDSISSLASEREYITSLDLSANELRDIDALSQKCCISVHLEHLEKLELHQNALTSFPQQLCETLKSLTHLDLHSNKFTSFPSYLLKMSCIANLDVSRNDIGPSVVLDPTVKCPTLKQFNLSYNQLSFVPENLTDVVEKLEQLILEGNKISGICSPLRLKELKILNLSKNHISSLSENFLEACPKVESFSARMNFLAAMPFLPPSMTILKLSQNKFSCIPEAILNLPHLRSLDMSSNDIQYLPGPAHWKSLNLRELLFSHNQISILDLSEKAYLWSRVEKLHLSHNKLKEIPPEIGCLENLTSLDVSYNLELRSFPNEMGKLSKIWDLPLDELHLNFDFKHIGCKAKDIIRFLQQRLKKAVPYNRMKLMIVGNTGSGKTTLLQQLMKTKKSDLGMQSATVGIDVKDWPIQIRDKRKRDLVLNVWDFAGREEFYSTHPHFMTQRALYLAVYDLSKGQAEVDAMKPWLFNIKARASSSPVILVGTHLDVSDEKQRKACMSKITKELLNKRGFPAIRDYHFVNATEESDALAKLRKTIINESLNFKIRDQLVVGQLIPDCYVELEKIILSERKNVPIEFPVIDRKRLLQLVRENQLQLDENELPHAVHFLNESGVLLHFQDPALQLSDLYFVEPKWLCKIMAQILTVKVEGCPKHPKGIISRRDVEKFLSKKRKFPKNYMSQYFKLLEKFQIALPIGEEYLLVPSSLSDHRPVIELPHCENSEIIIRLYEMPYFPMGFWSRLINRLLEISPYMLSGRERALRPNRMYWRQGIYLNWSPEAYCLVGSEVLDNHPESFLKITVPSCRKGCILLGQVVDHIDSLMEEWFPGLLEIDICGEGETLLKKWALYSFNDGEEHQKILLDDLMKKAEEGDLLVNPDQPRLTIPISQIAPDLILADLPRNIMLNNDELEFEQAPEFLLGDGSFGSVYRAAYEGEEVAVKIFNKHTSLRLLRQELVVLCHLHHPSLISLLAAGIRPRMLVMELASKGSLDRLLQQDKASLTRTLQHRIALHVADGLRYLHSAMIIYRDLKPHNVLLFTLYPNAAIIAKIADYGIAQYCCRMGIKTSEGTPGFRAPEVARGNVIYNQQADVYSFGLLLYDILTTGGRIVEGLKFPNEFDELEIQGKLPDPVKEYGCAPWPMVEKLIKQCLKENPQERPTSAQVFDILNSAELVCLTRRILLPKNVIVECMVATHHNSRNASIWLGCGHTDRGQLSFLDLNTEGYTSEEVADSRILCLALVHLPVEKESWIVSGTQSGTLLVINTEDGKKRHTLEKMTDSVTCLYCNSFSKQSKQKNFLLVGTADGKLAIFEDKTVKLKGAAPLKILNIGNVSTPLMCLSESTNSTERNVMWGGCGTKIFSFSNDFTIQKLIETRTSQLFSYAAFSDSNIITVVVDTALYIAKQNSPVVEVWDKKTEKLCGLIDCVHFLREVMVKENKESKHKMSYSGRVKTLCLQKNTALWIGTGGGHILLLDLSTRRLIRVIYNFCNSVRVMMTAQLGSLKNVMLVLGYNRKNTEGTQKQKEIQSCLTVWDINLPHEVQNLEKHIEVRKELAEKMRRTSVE
T1 sequence (Q5S007 whole entry): as above

Structure (SMILES) | IC50 (LRRK2 wild type enzyme) [nM] | IC50 [1] [nM]
C[C@@H]1C[C@H](n2c(CC(=O)Nc3cnn(C)c3)nc3cnc4ccc(Cl)cc4c32)CCO1 [Compound 193, 2-{8-chloro-1-[(2R,4R)-2-methyloxan-4-yl]-1H-imidazo[4,5-c]quinolin-2-yl}-N-(1-methyl-1H-pyrazol-4-yl)acetamide] | 0.261 | 5.59
C[C@@H]1C[C@H](n2c(C3CC(=O)N(C4COC4)C3)nc3cnc4ccc(C#N)cc4c32)CCO1 (stereo partly drawn) [Compound 46, 1-[(2R,4R)-2-methyloxan-4-yl]-2-[1-(oxetan-3-yl)-5-oxopyrrolidin-3-yl]-1H-imidazo[4,5-c]quinoline-8-carbonitrile] | 5.91 | 1330
Cc1onc(NC(=O)Cc2nc3cnc4ccc(C#N)cc4c3n2[C@@H]2CCO[C@H](C)C2)c1C [Compound 356, N-(4,5-dimethyl-3-isoxazolyl){3-[(2R,4R)-2-methyltetrahydro-2H-pyran-4-yl]-12-cyano-3,5,8-triazatricyclo[7.4.0.0^2,6]trideca-1(9),2(6),4,7,10,12-hexaen-4-yl}acetamide] | 0.439 | 7.78
Cc1cnc(NC(=O)Cc2nc3cnc4ccc(C#N)cc4c3n2[C@@H]2CCO[C@H](C)C2)cn1 [Compound 315, N-(5-methyl-2-pyrazinyl){3-[(2R,4R)-2-methyltetrahydro-2H-pyran-4-yl]-12-cyano-3,5,8-triazatricyclo[7.4.0.0^2,6]trideca-1(9),2(6),4,7,10,12-hexaen-4-yl}acetamide] | 0.471 | 2.52
C[C@@H]1C[C@H](n2c(CC(=O)N[C@@H]3CCCc4cccnc43)nc3cnc4ccc(C#N)cc4c32)CCO1 [Compound 357, N-[(R)-5,6,7,8-tetrahydro-8-quinolyl]{3-[(2R,4R)-2-methyltetrahydro-2H-pyran-4-yl]-12-cyano-3,5,8-triazatricyclo[7.4.0.0^2,6]trideca-1(9),2(6),4,7,10,12-hexaen-4-yl}acetamide] | 0.628 | 10.7
Cc1nc(CNC(=O)Cc2nc3cnc4ccc(C#N)cc4c3n2[C@@H]2CCO[C@H](C)C2)no1 [Compound 259, N-[(5-methyl-1,2,4-oxadiazol-3-yl)methyl]{3-[(2R,4R)-2-methyltetrahydro-2H-pyran-4-yl]-12-cyano-3,5,8-triazatricyclo[7.4.0.0^2,6]trideca-1(9),2(6),4,7,10,12-hexaen-4-yl}acetamide] | 1.34 | 132
C[C@@H]1C[C@H](n2c([C@@H]3CCN(S(=O)(=O)c4cnn(C)c4)C3)nc3cnc4ccc(C#N)cc4c32)CCO1 [Compound 128, 2-[(3R)-1-[(1-methyl-1H-pyrazol-4-yl)sulfonyl]pyrrolidin-3-yl]-1-[(2R,4R)-2-methyloxan-4-yl]-1H-imidazo[4,5-c]quinoline-8-carbonitrile] | 10 | 
COCCn1cc(N2CC(c3nc4cnc5ccc(C#N)cc5c4n3[C@@H]3CCO[C@H](C)C3)CC2=O)cn1 (stereo partly drawn) [Compound 171, 2-{1-[1-(2-methoxyethyl)-1H-pyrazol-4-yl]-5-oxopyrrolidin-3-yl}-1-[(2R,4R)-2-methyloxan-4-yl]-1H-imidazo[4,5-c]quinoline-8-carbonitrile] | 1.46 | 434
C[C@@H]1C[C@H](n2c(C3CC(=O)N(Cc4cccnc4)C3)nc3cnc4ccc(C#N)cc4c32)CCO1 (single isomer, unassigned) [Compound 31, 1-[(2R,4R)-2-methyloxan-4-yl]-2-[(3R*)-5-oxo-1-[(pyridin-3-yl)methyl]pyrrolidin-3-yl]-1H-imidazo[4,5-c]quinoline-8-carbonitrile] | 26.4 | 
C[C@@H]1C[C@H](n2c([C@@H]3CCN(C(=O)c4cccnn4)C3)nc3cnc4ccc(C#N)cc4c32)CCO1 [Compound 129, 1-[(2R,4R)-2-methyloxan-4-yl]-2-[(3R)-1-(pyridazine-3-carbonyl)pyrrolidin-3-yl]-1H-imidazo[4,5-c]quinoline-8-carbonitrile] | 2.47 | 
C[C@@H]1C[C@H](n2c([C@@H]3CCN(C(=O)c4cnn(C)c4)C3)nc3cnc4ccc(C#N)cc4c32)CCO1 [Compound 130, 2-[(3R)-1-(1-methyl-1H-pyrazole-4-carbonyl)pyrrolidin-3-yl]-1-[(2R,4R)-2-methyloxan-4-yl]-1H-imidazo[4,5-c]quinoline-8-carbonitrile] | 6.71 | 
Cn1cc(-n2c(C3CC(=O)N(CC4CC4)C3)nc3cnc4ccc(C#N)cc4c32)ccc1=O (centres unmarked) [Compound 137, 2-[1-(cyclopropylmethyl)-5-oxopyrrolidin-3-yl]-1-(1-methyl-6-oxo-1,6-dihydropyridin-3-yl)-1H-imidazo[4,5-c]quinoline-8-carbonitrile] | > 1000 | 
Cn1cc(-n2c(CC(=O)NCC3CC3)nc3cnc4ccc(C#N)cc4c32)ccc1=O [Compound 92, 2-[8-cyano-1-(1-methyl-6-oxo-1,6-dihydropyridin-3-yl)-1H-imidazo[4,5-c]quinolin-2-yl]-N-(cyclopropylmethyl)acetamide] | > 1000 | 
Cc1cc(-n2c(CC(=O)NCC3CC3)nc3cnc4ccc(C#N)cc4c32)ccn1 [Compound 138, 2-[8-cyano-1-(2-methylpyridin-4-yl)-1H-imidazo[4,5-c]quinolin-2-yl]-N-(cyclopropylmethyl)acetamide] | > 1000 | 
C[C@@H]1C[C@H](n2c(CN3CCC(C(=O)O)CC3)nc3cnc4ccc(C#N)cc4c32)CCO1 [Compound 76, 1-({8-cyano-1-[(2R,4R)-2-methyloxan-4-yl]-1H-imidazo[4,5-c]quinolin-2-yl}methyl)piperidine-4-carboxylic acid] | 109 | 
C[C@@H]1C[C@H](n2c(CC(=O)NCC3CC3)nc3cnc4ccc(C(=O)N(C)C)cc4c32)CCO1 [Compound 144, 2-{[(cyclopropylmethyl)carbamoyl]methyl}-N,N-dimethyl-1-[(2R,4R)-2-methyloxan-4-yl]-1H-imidazo[4,5-c]quinoline-8-carboxamide] | > 1000 | 
